# Source: ChEMBL document CHEMBL3745631, “Discovery of highly potent and selective Bruton's tyrosine kinase inhibitors: Pyridazinone analogs with improved metabolic stability” (Bioorg Med Chem Lett, 2016)
# What was measured:
# [1] = target: Sphingosine kinase 1 (Homo sapiens) (UniProt Q9NYA1); experiment: Inhibition of SPHK1 (unknown origin) at 1 uM
# [2] = target: Homeodomain-interacting protein kinase 1 (Homo sapiens) (UniProt Q86Z02); experiment: Inhibition of HIPK1 (unknown origin) at 1 uM
# [3] = target: SRSF protein kinase 3 (Homo sapiens) (UniProt Q9UPE1); experiment: Inhibition of MSSK1 (unknown origin) at 1 uM
# [4] = target: MAP kinase-activated protein kinase 3 (Homo sapiens) (UniProt Q16644); experiment: Inhibition of MAPKAPK3 (unknown origin) at 1 uM
# [5] = Inhibition of anti-IgM-stimulated human B cell proliferation
# [6] = target: Ephrin type-A receptor 7 (Homo sapiens) (UniProt Q15375); experiment: Inhibition of EphA7 (unknown origin) at 1 uM
# [7] = target: Ribosomal protein S6 kinase alpha-5 (Homo sapiens) (UniProt O75582); experiment: Inhibition of MSK1 (unknown origin) at 1 uM
# [8] = target: CDK9/cyclin T1 (Homo sapiens) (UniProt O60563+P50750); experiment: Inhibition of CDK9/cyclinT1 (unknown origin) at 1 uM; assay type: protein-complex assay
# [9] = target: Homeodomain-interacting protein kinase 2 (Homo sapiens) (UniProt Q9H2X6); experiment: Inhibition of HIPK2 (unknown origin) at 1 uM
# [10] = target: Serine/threonine-protein kinase Chk2 (Homo sapiens) (UniProt O96017); experiment: Inhibition of CHK2 (unknown origin) at 1 uM
# [11] = target: Ephrin type-A receptor 1 (Homo sapiens) (UniProt P21709); experiment: Inhibition of EphA1 (unknown origin) at 1 uM
# Ephrin type-A receptor 1 (Homo sapiens), sequence (P21709 whole entry): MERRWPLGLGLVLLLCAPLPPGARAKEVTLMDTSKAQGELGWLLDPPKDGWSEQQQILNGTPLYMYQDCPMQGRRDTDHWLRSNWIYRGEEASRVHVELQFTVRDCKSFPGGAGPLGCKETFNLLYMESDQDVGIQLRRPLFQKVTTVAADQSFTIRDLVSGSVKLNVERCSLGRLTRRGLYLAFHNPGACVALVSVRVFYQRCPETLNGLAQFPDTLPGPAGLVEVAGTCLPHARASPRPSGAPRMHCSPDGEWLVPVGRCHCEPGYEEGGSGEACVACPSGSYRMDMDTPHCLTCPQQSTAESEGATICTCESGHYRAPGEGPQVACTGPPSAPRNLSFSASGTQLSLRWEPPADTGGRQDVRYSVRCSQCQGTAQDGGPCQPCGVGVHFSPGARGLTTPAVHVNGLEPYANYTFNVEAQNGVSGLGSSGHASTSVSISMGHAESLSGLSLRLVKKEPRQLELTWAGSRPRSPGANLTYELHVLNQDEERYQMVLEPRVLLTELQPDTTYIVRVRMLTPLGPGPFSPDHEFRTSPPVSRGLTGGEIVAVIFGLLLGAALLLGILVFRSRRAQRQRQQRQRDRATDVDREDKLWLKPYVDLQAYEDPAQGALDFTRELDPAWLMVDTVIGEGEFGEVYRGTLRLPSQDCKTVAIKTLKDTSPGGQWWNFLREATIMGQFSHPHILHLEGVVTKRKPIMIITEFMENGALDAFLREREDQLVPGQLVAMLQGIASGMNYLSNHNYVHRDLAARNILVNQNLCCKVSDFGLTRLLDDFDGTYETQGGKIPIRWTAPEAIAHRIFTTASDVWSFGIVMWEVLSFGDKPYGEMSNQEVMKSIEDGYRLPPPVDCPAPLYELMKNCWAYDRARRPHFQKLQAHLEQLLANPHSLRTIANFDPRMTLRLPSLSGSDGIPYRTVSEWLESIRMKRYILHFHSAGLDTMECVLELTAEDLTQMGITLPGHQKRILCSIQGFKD
# [12] = target: Myosin light chain kinase (Homo sapiens) (UniProt Q32MK0); experiment: Inhibition of MYLK3 (unknown origin) at 1 uM
# [13] = target: Mitogen-activated protein kinase kinase kinase 8 (Homo sapiens) (UniProt P41279); experiment: Inhibition of Cot (unknown origin) at 1 uM
# Mitogen-activated protein kinase kinase kinase 8 (Homo sapiens), sequence (P41279 whole entry): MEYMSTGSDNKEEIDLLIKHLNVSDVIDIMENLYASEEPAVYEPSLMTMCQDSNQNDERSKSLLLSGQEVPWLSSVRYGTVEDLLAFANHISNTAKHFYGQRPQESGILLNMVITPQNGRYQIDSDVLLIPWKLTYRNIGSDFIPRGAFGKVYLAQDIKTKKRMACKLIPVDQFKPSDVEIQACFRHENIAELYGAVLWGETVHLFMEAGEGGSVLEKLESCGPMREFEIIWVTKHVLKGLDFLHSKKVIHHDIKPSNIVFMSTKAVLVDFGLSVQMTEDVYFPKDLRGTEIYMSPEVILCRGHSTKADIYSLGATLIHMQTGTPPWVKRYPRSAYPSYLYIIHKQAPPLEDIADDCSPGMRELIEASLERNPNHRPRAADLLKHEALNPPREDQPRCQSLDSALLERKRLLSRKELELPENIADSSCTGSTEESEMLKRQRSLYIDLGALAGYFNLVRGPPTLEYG
# [14] = target: Protein-tyrosine kinase 2-beta (Homo sapiens) (UniProt Q14289); experiment: Inhibition of FAK2 (unknown origin) at 1 uM
# [15] = target: Protein kinase C alpha type (Homo sapiens) (UniProt P17252); experiment: Inhibition of PKC alpha (unknown origin) at 1 uM
# [16] = target: Fibroblast growth factor receptor 4 (Homo sapiens) (UniProt P22455); experiment: Inhibition of FGFR4 (unknown origin) at 1 uM
# Fibroblast growth factor receptor 4 (Homo sapiens), sequence (P22455 22-802 limits assumed): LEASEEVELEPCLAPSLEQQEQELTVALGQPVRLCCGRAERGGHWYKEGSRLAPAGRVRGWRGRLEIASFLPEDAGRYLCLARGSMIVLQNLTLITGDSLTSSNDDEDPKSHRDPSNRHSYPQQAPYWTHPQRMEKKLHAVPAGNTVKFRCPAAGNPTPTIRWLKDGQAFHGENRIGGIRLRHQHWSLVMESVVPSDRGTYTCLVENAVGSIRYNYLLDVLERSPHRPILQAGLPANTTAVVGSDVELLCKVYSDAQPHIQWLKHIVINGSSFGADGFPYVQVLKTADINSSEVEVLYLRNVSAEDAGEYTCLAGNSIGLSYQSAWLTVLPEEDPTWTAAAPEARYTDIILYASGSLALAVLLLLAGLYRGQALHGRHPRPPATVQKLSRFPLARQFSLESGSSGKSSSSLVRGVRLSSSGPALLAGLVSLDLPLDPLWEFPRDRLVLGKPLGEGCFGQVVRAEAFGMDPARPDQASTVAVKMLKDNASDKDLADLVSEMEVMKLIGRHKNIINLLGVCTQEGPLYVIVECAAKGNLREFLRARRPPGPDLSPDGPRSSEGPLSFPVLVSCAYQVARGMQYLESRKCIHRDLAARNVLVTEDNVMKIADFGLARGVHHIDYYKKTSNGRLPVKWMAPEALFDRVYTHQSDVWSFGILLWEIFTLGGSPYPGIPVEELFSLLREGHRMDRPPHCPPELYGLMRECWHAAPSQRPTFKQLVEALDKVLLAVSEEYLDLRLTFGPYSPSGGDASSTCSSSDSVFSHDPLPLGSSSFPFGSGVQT
# [17] = target: Mitogen-activated protein kinase 9 (Homo sapiens) (UniProt P45984); experiment: Inhibition of JNK2 (unknown origin) at 1 uM
# [18] = target: Serine/threonine-protein kinase PAK 1 (Homo sapiens) (UniProt Q13153); experiment: Inhibition of PAK1 (unknown origin) at 1 uM
# [19] = target: Receptor-interacting serine/threonine-protein kinase 2 (Homo sapiens) (UniProt O43353); experiment: Inhibition of RIPK2 (unknown origin) at 1 uM
# [20] = target: Dual specificity tyrosine-phosphorylation-regulated kinase 4 (Homo sapiens) (UniProt Q9NR20); experiment: Inhibition of DYRK4 (unknown origin) at 1 uM
# [21] = target: Tyrosine-protein kinase CSK (Homo sapiens) (UniProt P41240); experiment: Inhibition of CSK (unknown origin) at 1 uM
# [22] = target: Dual specificity protein kinase CLK1 (Homo sapiens) (UniProt P49759); experiment: Inhibition of CLK1 (unknown origin) at 1 uM
# [23] = target: Casein kinase I isoform alpha (Homo sapiens) (UniProt P48729); experiment: Inhibition of CK1 alpha1 (unknown origin) at 1 uM
# [24] = target: Receptor tyrosine-protein kinase erbB-4 (Homo sapiens) (UniProt Q15303); experiment: Inhibition of ErbB4 (unknown origin) at 1 uM
# [25] = target: Calcium/calmodulin-dependent protein kinase type 1 (Homo sapiens) (UniProt Q14012); experiment: Inhibition of CaMKI (unknown origin) at 1 uM
# [26] = target: Serine/threonine-protein kinase PAK 4 (Homo sapiens) (UniProt O96013); experiment: Inhibition of PAK4 (unknown origin) at 1 uM
# [27] = target: Myotonin-protein kinase (Homo sapiens) (UniProt Q09013); experiment: Inhibition of DMPK (unknown origin) at 1 uM
# [28] = target: Tyrosine-protein kinase HCK (Homo sapiens) (UniProt P08631); experiment: Inhibition of Hck (unknown origin) at 1 uM
# [29] = target: Glycogen synthase kinase-3 beta (Homo sapiens) (UniProt P49841); experiment: Inhibition of GSK3 beta (unknown origin) at 1 uM
# [30] = target: Platelet-derived growth factor receptor beta (Homo sapiens) (UniProt P09619); experiment: Inhibition of PDGFR_beta (unknown origin) at 1 uM
# Platelet-derived growth factor receptor beta (Homo sapiens), sequence (P09619 whole entry, the tested form may be a part): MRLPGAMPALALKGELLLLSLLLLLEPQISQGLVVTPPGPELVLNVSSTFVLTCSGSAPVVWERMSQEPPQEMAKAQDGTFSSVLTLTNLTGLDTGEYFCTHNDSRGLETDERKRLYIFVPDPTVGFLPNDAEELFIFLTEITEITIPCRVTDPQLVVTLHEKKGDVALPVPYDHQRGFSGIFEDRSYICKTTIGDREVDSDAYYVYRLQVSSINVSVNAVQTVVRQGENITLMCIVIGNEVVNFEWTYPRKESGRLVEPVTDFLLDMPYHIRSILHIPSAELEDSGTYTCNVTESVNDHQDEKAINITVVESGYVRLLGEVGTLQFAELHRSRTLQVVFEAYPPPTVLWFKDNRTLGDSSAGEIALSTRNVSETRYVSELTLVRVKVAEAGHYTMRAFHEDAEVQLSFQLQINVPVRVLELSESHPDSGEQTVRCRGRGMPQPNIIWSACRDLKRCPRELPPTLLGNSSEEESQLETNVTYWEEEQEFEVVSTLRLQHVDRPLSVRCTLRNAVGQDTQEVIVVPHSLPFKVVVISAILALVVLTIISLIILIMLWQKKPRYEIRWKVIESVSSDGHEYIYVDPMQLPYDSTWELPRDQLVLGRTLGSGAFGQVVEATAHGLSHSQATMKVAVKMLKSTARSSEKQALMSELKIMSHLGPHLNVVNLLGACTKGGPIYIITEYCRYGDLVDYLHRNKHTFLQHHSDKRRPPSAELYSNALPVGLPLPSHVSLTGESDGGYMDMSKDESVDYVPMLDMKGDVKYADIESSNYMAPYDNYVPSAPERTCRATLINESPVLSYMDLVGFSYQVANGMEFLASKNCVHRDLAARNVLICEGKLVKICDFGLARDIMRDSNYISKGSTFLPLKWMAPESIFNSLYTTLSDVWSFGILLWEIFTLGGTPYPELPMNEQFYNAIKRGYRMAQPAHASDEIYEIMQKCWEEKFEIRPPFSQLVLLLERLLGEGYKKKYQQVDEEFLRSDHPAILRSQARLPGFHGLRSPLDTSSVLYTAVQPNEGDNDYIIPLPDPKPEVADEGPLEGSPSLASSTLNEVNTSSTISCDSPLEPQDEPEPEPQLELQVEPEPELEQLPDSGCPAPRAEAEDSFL
# [31] = target: LIM domain kinase 1 (Homo sapiens) (UniProt P53667); experiment: Inhibition of LIMK1 (unknown origin) at 1 uM
# [32] = target: NUAK family SNF1-like kinase 1 (Homo sapiens) (UniProt O60285); experiment: Inhibition of ARK5 (unknown origin) at 1 uM
# [33] = target: Tyrosine-protein kinase ITK/TSK (Homo sapiens) (UniProt Q08881); experiment: Inhibition of ITK (unknown origin) at 1 uM
# [34] = target: Eukaryotic elongation factor 2 kinase (Homo sapiens) (UniProt O00418); experiment: Inhibition of eEF-2K (unknown origin) at 1 uM
# [35] = target: Insulin receptor-related protein (Homo sapiens) (UniProt P14616); experiment: Inhibition of IRR (unknown origin) at 1 uM
# [36] = tested on: Blood; experiment: Inhibition of IgE-stimulated CD63 expression in human whole blood
# [37] = target: Mitogen-activated protein kinase kinase kinase 10 (Homo sapiens) (UniProt Q02779); experiment: Inhibition of MLK2 (unknown origin) at 1 uM
# [38] = target: Activin receptor type-1B (Homo sapiens) (UniProt P36896); experiment: Inhibition of ACVR1B (unknown origin) at 1 uM
# Activin receptor type-1B (Homo sapiens), sequence (P36896 whole entry): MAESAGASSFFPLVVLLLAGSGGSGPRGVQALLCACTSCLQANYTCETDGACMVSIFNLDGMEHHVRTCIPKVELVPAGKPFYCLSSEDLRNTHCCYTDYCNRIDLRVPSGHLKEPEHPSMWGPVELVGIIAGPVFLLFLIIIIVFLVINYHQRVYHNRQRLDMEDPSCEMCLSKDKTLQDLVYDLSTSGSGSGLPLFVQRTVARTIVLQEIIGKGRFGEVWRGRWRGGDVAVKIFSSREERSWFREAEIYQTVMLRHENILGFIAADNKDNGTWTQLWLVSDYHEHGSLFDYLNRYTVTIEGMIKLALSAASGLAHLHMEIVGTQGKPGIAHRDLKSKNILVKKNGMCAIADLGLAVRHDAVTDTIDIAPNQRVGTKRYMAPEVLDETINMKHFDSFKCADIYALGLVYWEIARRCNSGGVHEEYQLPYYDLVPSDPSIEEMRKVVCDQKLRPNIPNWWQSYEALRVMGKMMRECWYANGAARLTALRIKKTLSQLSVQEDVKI
# [39] = target: Wee1-like protein kinase (Homo sapiens) (UniProt P30291); experiment: Inhibition of WEE1 (unknown origin) at 1 uM
# [40] = target: Serine/threonine-protein kinase PAK 3 (Homo sapiens) (UniProt O75914); experiment: Inhibition of PAK3 (unknown origin) at 1 uM
# [41] = target: Serine/threonine-protein kinase BRSK1 (Homo sapiens) (UniProt Q8TDC3); experiment: Inhibition of BrSK1 (unknown origin) at 1 uM
# [42] = target: Serine/threonine-protein kinase TAO1 (Homo sapiens) (UniProt Q7L7X3); experiment: Inhibition of TAO1 (unknown origin) at 1 uM
# [43] = target: Phosphorylase b kinase gamma catalytic chain, liver/testis isoform (Homo sapiens) (UniProt P15735); experiment: Inhibition of PhK gamma2 (unknown origin) at 1 uM
# Phosphorylase b kinase gamma catalytic chain, liver/testis isoform (Homo sapiens), sequence (P15735 whole entry, canonical isoform): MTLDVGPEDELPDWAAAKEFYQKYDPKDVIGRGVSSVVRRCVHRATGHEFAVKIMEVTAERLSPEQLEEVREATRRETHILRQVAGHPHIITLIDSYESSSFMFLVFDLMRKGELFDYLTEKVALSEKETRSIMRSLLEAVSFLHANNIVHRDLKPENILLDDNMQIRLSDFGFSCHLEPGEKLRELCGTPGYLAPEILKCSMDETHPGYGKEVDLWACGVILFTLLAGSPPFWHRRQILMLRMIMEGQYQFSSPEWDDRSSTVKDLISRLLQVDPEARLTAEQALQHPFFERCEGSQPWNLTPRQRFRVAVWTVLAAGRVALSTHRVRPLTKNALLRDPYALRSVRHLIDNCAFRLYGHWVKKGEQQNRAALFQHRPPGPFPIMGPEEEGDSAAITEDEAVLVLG
# [44] = tested on: Rattus norvegicus; experiment: Clearance in rat at 1 mg/kg, iv by LC-MS/MS analysis; assay type: ADME, organism-based; conditions: in vivo
# [45] = target: Ephrin type-B receptor 3 (Homo sapiens) (UniProt P54753); experiment: Inhibition of EphB3 (unknown origin) at 1 uM
compound,measurement,setting,value
Cc1c(-c2cc(Nc3cc4n(n3)CCN(C)C4)c(=O)[nH]n2)ccc(F)c1NC(=O)c1cc2ccccc2s1,inhibition,[1],35.1%
same,inhibition,[2],0.4%
same,inhibition,[3],3.4%
same,inhibition,[4],6.9%
same,EC50,[5],6 nM
same,inhibition,[6],-2%
same,inhibition,[7],-6.5%
same,inhibition,[8],1%
same,inhibition,[9],4.5%
same,inhibition,[10],-3.8%
same,inhibition,[11],2.2%
same,inhibition,[12],3%
same,inhibition,[13],20.1%
same,inhibition,[14],4%
same,inhibition,[15],-2.1%
same,inhibition,[16],-3.5%
same,inhibition,[17],1.8%
same,inhibition,[18],3.4%
same,inhibition,[19],-0.4%
same,inhibition,[20],-1.1%
same,inhibition,[21],5.2%
same,inhibition,[22],5%
same,inhibition,[23],4%
same,inhibition,[24],2.7%
same,inhibition,[25],6.3%
same,inhibition,[26],6.2%
same,inhibition,[27],-3.6%
same,inhibition,[28],3%
same,inhibition,[29],11.1%
same,inhibition,[30],8%
same,inhibition,[31],-5.5%
same,inhibition,[32],-3.8%
same,inhibition,[33],38.3%
same,inhibition,[34],3%
same,inhibition,[35],2.3%
same,EC50,[36],257 nM
same,inhibition,[37],7.3%
same,inhibition,[38],-3.9%
same,inhibition,[39],-1.8%
same,inhibition,[40],14.6%
same,inhibition,[41],0.8%
same,inhibition,[42],-3.8%
same,inhibition,[43],1.8%
same,clearance,[44],5 mL/min/kg
same,inhibition,[45],2.5%
